Laboratory results from patent US20220056484A1, “SELECTION BY MEANS OF ARTIFICIAL TRANSACTIVATORS” (Ospedale San Raffaele S.R.L., priority 2018, published 2022).

System: CXCR4 selector in IL2RG locus, CD34+ cells
Test: SMArT-D in CD34+ cells, IL2RG locus, CXCR4 selector
Type: cell-based, human
Settings: lower dose (80 nM), after washout
Experimental: CD34+ cells were edited according to a previously optimized protocol (Schiroli et al., 2017). Briefly, 5×10^5 CD34+ cells/ml were stimulated in serum-free StemSpan medium (StemCell Technologies) supplemented with penicillin, streptomycin, glutamine, 1 μM SR-1 (Biovision), 50 μM UM171 (STEMCell Technologies), 10 μM PGE2 added only at the beginning of the culture (Cayman), and human early-acting cytokines (SCF 100 ng/ml, Flt3-L 100 ng/ml, TPO 20 ng/ml, and IL-6 20 ng/ml; all purchased from Peprotech). After 3 days of pre-stimulation, cells were washed with PBS and electroporated using P3 Primary Cell 4D-Nucleofector X Kit and program EO-100 (Lonza). Cells were electroporated with 2.5-1.25 μM of RNPs. Transduction with AAV6 was performed at a dose of 1×10^4 vg/cell 15′ after electroporation. […] Gene editing efficiency was measured from cultured cells in vitro 3 days after electroporation by flow cytometry measuring the percentage of cells expressing the GFP/truncated NGFR/CXCR4 marker or by digital droplet PCR analysis designing primers and probe on the junction between the vector sequence and the targeted locus and on control sequences utilized as normalizer.

C[C@H]1c2cccc(O)c2C(=O)C2=C(O)[C@]3(O)C(=O)C(C(N)=O)=C(O)[C@@H](N(C)C)[C@@H]3[C@@H](O)[C@@H]21 [doxycycline]
CXCR4-overexpressing cells in the most primitive compartment: up to 13%
